Nine compounds from US20160207893A1, “NOVEL CALCIUM MODULATORS” (Myotherix, Inc., priority 2014, published 2016) can be followed below.

Data set [1] relates to iCell Cardiomyocytes (hIPS cardiomyocytes). The data set is described as follows: Calcium transient dynamics in cardiomyocytes derived from human stem cells by Kinetic Image Cytometry. It is filed as cell-based.
Description: CTD25: Approximates the time elapsed during the first 25% of the transient duration. The measurement assesses the time elapsed from the 75% point of upstroke to the 75% point on the downstroke relative to the peak. Full Width Half Maximum (FWHM): The time elapsed from the 50% point of the upstroke to the 50% point of the down stroke. CTD75: Approximates the time elapsed for 75% of the transient duration. The measurement assesses the time elapsed from the 25% point of upstroke to the 25% point on the down stroke relative to the peak. CTD90: Approximates the time elapsed for 90% of the transient duration. The measurement assesses the time elapsed from the 10% point of upstroke to the 10% point on the down stroke relative to the peak. Decay Time: The time elapsed from the peak to the 50% point of the down stroke T75-25: The time elapsed from the 75% point of the transient maximum to the 25% point of the transient maximum on the down stroke. Beat Rate is assessed by measuring the number of transients observed during the recording period and extrapolating out to the number of expected beats per minute.
Analysis of Test Compounds on Calcium Transient Dynamics in Cardiomyocytes Derived from Human Stem Cells by Kinetic Image Cytometry
Cryopreserved cells (Cellular Dynamics International) were plated onto 96 well tissue culture plates previously coated with Matrigel (250 μg/ml) at a density of 25,000 cells per well, and maintained for two days in plating medium at 37° C. and 7% CO2. After two days in culture, the plating media was replaced with maintenance media and the cells were kept at 37° C. and 7% CO2 with the maintenance media replaced every other day. The cardiomyocytes were maintained in culture for 10 days prior to their use in the assay.
Prior to treatment with the test compounds, the cardiomyocytes were loaded using Fluo-4NW, Hoechst 33342 (200 ng/ml), and 2.5 mM probenecid in the supplied Fluo-4NW assay buffer. Cells were loaded for 1 hour at 37° C.
Test compounds were diluted to their final concentration in Tyrode's solution and brought to 37° C. In addition to standard 2 mM CaCl2 Tyrode's solution, elevated calcium variations using 4 mM and 6 mM CaCl2 were examined in separate test sets.
The hIPS Cardiomyocytes were also prepared for testing with 1 Hz electrical stimulation in standard 2 mM CaCl2 Tyrodes, and test compounds were prepared as described above. […]
Vala Sciences' Kinetic Image Cytometer (KIC™) was used to capture movies of the intracellular calcium transients. The environmental control chamber of the KIC was set to 37° C. and the KIC was fitted with a 20× objective and captured one image of the nuclei (Hoechst), then recorded 10 seconds of spontaneous activity (Fluo-4NW) at 30 fps from each well.
Data set [2] is described as follows: Plasma stability (incubation in mouse plasma, LC/MS/MS). It counts as in vitro ADME. The note with it: for Plasma Stability, Time 0 min / Plasma Stability, Time 30 min / Plasma Stability, Time 60 min / Plasma Stability, Time 240 min: 37° C., 20 μM, parent remaining vs 0-min control. The procedure: The assay was carried out in 96-well microtiter plates. Compounds were incubated at 37° C. in the presence of the plasma. Reaction mixtures (50 μL) contained a final concentration of 20 μM test compound. The extent of metabolism was calculated as the disappearance of the test compound, compared to the 0-min control reaction incubations. Eucatropine was included as a positive control to verify assay performance.
At each of the time points, 500 μL of quench solution (100% acetonitrile with 0.1% formic acid) with internal standard was transferred to each well. Plates were sealed, vortexed, and centrifuged at 4° C. for 15 minutes at 4000 rpm. The supernatant was transferred to fresh plates for LC/MS/MS analysis.
All samples were analyzed on LC/MS/MS using an AB Sciex API 4000 instrument, coupled to a Shimadzu LC-20AD LC Pump system. Analytical samples were separated using a Waters Atlantis T3 dC18 reverse phase HPLC column (10 mm×2.1 mm) at a flow rate of 0.5 mL/min. The mobile phase consisted of 0.1% formic acid in water (solvent A) and 0.1% formic acid in 100% acetonitrile (solvent B). Elution conditions are detailed in the table below.

The subject of data set [3] is human Duchenne muscular dystrophy (hDMD) myoblast cells. The data set is described as follows: Calcium release, SR calcium leak and SOCE in Fluo-4/AM-loaded hDMD myoblasts (CPA protocol). It is filed as cell-based. The note with it: 30 uM; for Integrated CPA-Induced CaT (area under the curve) (% Reduction in Peak A): CPA in Ca2+-free solution; for % Reduction in Peak CaT after return to 2 mM Ca^2+ (% Reduction in Peak E): SOCE-induced calcium transit. As for the experimental part: Parameters measured are A, the peak CPA-induced calcium transit (F/F0); B, the maximum rate of rise of CPA-induced calcium transit (+ΔF/s); C, the maximum rate of decline of CPA-induced calcium transit (−ΔF/s); D, the integrated CPA-induced calcium transit (F.s); and E, the SOCE-induced calcium transit (F/F0).
Cell Preparation: De-identified telomerized human Duchenne muscular dystrophy (hDMD) myoblast cells were grown under standard cell culture conditions in 35 mm glass bottom petri dishes (MatTek, Ashland, Mass.) specially designed for perfusion and imaging.
Uncoated coverslips were coated with gelatin and hDMD cells seeded at ˜40-60% confluency 24 hours prior to fluorescence experiments.
Step 1. Cell Loading with the Fluorescent Ca^2+ Indicator Fluo-4/AM (Cell Permeant Form): hDMD cells were loaded with 5 μM Fluo-4/AM (Thermo Fisher Scientific) for 45 min at room temperature in the same buffer used for experiments of which composition is described below. After the incubation, the cells are washed twice with the same buffer without the indicator. Fluorescence experiments were initiated after a 30 min incubation in indicator-free buffer to allow for de-esterification of the dye and conversion to its acid active form by endogenous esterases.
Step 2. Fluo-4 Fluorescence Detection: A 35 mm petri dish containing Fluo-4-loaded myoblasts was set on the stage of an inverted Nikon Diaphot 300 epifluorescence microscope equipped with a dual PMT ratiometric fluorimeter system (Model SFX-2, Solamere Technology Group, Salt Lake City, Utah) and optical switch (Model DX-1000, Salt Lake City, Utah), a B/W camera and monitor, a PC computer running on Windows 7 Pro operating system and A/D-D/A data acquisition hardware (Axon Instruments Inc., Digidata 1440 interface) and software (Axon Instruments Inc., Axoscope v. 9.2). During a typical experiment, ca. one third to one half of a cell (field of view narrowed by a manually-controlled diaphragm) is visualized on the B/W TV monitor with an oil immersion 40× Fluor objective (NA=1.3) and defines the area from which epifluorescence intensity will be measured by one of the two PMTs (non-ratiometric measurements). For all experiments, the cells are excited by visible light produced by a 100 W mercury arc lamp centered at 488 nm. Emitted fluorescence at 520 nm is transmitted to the lateral port of the microscope by means of dichroic mirrors and a specific barrier filter located in one of three microscope filter cubes. Before each day of experiments, background fluorescence is cancelled by measuring emitted fluorescence in an unloaded cell. For all cells loaded with Fluo-4/AM, relative fluorescence intensity at 520 nm (filtered at 5 Hz) is normalized to Fluo-4 fluorescence intensity measured in Ca^2+-free medium (F/F0) prior to the addition of 10 μM cyclopiazonic acid (CPA; see protocol description below) to monitor Ca^2+ leakage from the sarcoplasmic reticulum (SR). Free intracellular Ca^2+ concentration is continuously monitored (>20 min; acquisition rate=200 Hz) with no evidence of photobleaching due to low level of excitation light intensity used and sensitivity of the Hamamatsu PMT set to high power.
After mounting the petri dish containing Fluo-4-loaded cells on the microscope stage, cell perfusion with normal physiological salt solutions (PSS) containing 2 mM Ca^2+ was initiated. A myoblast cell was then chosen under normal illumination. Fluo-4 fluorescence intensity recording was then initiated for 2 to 3 minutes to assess the level of loading and stability of the measurement. Once these conditions were met, the solution was switched to Ca^2+-free PSS for 5 min, and then switched for another 5 min to Ca^2+-free PSS containing only vehicle (Control; maximal concentration of 0.1% dimethyl sulfoxide) or vehicle plus drug to be tested (Test). […]

Data set [4] deals with mdx mice. The data set is described as follows: Histology (H&E): muscle regeneration and markers of inflammation in treated mdx mice. It is filed as in vivo, mouse. The note with it: 4-weeks treatment. As for the experimental part: (§1) mdx C57BL/10 mice (15 mice per group) (Jackson Laboratory; mdx mice stock number 001801; C57BL/10 stock number 000476) were treated with Example 20 formulated in food (347 mg of Example 20 blended into 1 kg of Purina LabDiet Rodent 5001). Based on calculated food consumption, the dose of Example 20 was estimated to be 60 mg/Kg, administered daily in diet for 4 weeks.
(§2) Mice were delivered at 4 weeks of age, and acclimatized for an additional seven days prior to initiation of the study. All animals were weighed, and grouped into different treatment groups based on body weight. Each group received an appropriate daily dosage of Example 20 or vehicle. Age and sex-matched C57BL/10 (vehicle) were used as controls. Exposure levels of Example 1 (the metabolism product of Example 20) in mouse plasma was measured in a separate 5-day pharmacokinetic study in mdx mice prior to the initiation of the 4-week study. Plasma samples were also taken at the termination of the 4-week study for pharmacokinetic assessment in which exposure leves of Example 1 were again measured (the results are set out below). The functional measurements (grip strength measurement and exhaustion assay) were performed after treatment. At the end of the trial, the extensor digitorum longus muscle (EDL) and diaphragm in vitro force measurements were taken, and dissection of the mice was performed to collect tissues. Histology evaluation (H&E) was performed on the frozen sections of the diaphragm and gastrocnemius muscles for each group.
Diaphragm and gastrocnemius muscles of untreated and drug-treated mice were isolated and included in Killik frozen section medium, frozen and cut into 8-μm thick sections with the muscle fibers oriented transversely using a cryostat. Sections were stained with Hematoxylin & Eosin to evaluate markers of inflammation, muscle degeneration and regeneration and percentage central nuclei according to Grounds (TREAT NMD SOP protocol DMD_M.1.2.007, Quantification of histopathology in Haemotoxylin and Eosin stained muscle sections).

For data set [5], the system named is mdx mice. The data set is described as follows: In vitro force measurement of diaphragm muscle of treated mdx mice. It is filed as in vivo, mouse. The note with it: ca. 60 mg/kg in diet, four weeks of daily treatment (FIG. 8). As for the experimental part:
as §1
as §2, with “Histology evaluation (H&E) was performed on the frozen sections of the diaphragm and gastrocnemius muscles for each group.” left out

Each structure is given as a SMILES string. A value given as a limit tells only on which side of the number the result lay.

As for `COC(=O)C1=C(C)NC(C)=C([N+](=O)[O-])C1c1ccccc1C(F)(F)F` (stereo not shown) [Bay K8644, reference compound], the “CTD75 relative to vehicle control” value in data set [1] (reference compounds at 1 uM, under each experimental condition, 0.1% DMSO vehicle) is ≥ 125 % of vehicle control.
Turning to `CC1CC(OC(=O)C(O)c2ccccc2)CC(C)(C)N1C` (stereo not shown) [Eucatropine, reference compound], in data set [2], the “Plasma Stability, Time 0 min” value was 100.0%; the “Plasma Stability, Time 30 min” value is 90.0%; the “Plasma Stability, Time 60 min” value amounted to 67.4%; the “Plasma Stability, Time 240 min” value worked out at 41.0%.
`[2H]C(c1ccc(C(=O)O)cc1)N1CCSc2ccc(OC)cc2C1([2H])[2H]` (stereo not shown) [Example 1, 4-((5,5-Dideutero-7-methoxy-2,3-dihydrobenzo[f][1,4]thiazepin-4(5H)-yl)deuteromethyl)benzoic acid]: the “plasma stability after 2-hours of incubation in plasma” value in data set [2] (2-hours of incubation) is “unchanged”. In data set [2], the “Plasma Stability, Time 0 min” value is 100.0%; the “Plasma Stability, Time 30 min” value is 111.2%; the “Plasma Stability, Time 60 min” value turned out to be 99.8%; the “Plasma Stability, Time 240 min” value is 102.1%.
In the case of `COc1cc2c(cn1)SCCN(Cc1ccc(C(=O)O)cc1)C2` [Example 2, 4-((7-Methoxy-2,3-dihydropyrido[4,3-f][1,4]thiazepin-4(5H)-yl)methyl)benzoic acid], in data set [1] (10 uM, 30 uM (FIG. 5)), the “CTD75 shortened to % of control” value is reported as 79 % of control and the “triangulation T75-25 reduced to % of control” value is reported as 71 % of control. Also, the “effect on proarrhythmia and calcium transient” value in data set [1] (10 uM, 30 uM, spontaneously beating cells in 4 mM calcium Tyrode's solution (FIG. 4)) was “dose-related reduction of proarrhythmia and calcium transient shortening”. Further, in data set [3], the “Integrated CPA-Induced CaT (area under the curve) (% Reduction in Peak A)” value is given as 43.3% and the “% Reduction in Peak CaT after return to 2 mM Ca^2+ (% Reduction in Peak E)” value (“% Reduction in Peak CaT after return” below) turned out to be 41.4%.
With `COc1ccc2c(n1)CN(Cc1ccc(C(=O)O)cc1)CCS2` [Example 9, 4-((7-Methoxy-2,3-dihydropyrido[2,3-f][1,4]thiazepin-4(5H)-yl)methyl)benzoic acid], in data set [3], the “Integrated CPA-Induced CaT (area under the curve) (% Reduction in Peak A)” value was determined as 19.4% and the “% Reduction in Peak CaT after return” value is listed as 40.7%.
Turning to `COc1cnc2c(c1)CN(Cc1ccc(C(=O)O)cc1)CCS2` [Example 13, 4-((7-Methoxy-2,3-dihydropyrido[3,2-f][1,4]thiazepin-4(5H)-yl)methyl)benzoic acid], in data set [3], the “Integrated CPA-Induced CaT (area under the curve) (% Reduction in Peak A)” value is on record as 25.9% and the “% Reduction in Peak CaT after return” value was determined as 80.8%.
Take `COc1ncc2c(n1)CN(Cc1ccc(C(=O)O)cc1)CCS2` [Example 17, 4-((2-Methoxy-6,7-dihydropyrimido[4,5-f][1,4]thiazepin-8(9H)-yl)methyl)benzoic acid]: in data set [3], the “Integrated CPA-Induced CaT (area under the curve) (% Reduction in Peak A)” value is recorded as 23.0% and the “% Reduction in Peak CaT after return” value was found to be 21%.
Consider `[2H]C(c1ccc(C(=O)OCCCCO[N+](=O)[O-])cc1)N1CCSc2ccc(OC)cc2C1([2H])[2H]` (stereo not shown) [Example 20], for which, in the data set on mdx mice [4], the “increase in regenerating fibers/mm^2 in the diaphragm” value is reported as over 25%, the “increase in regenerating fibers/mm^2 in the gastrocnemius muscle” value was over 50% and the “reduction in inflammatory foci/mm^2 in the gastrocnemius muscle” value was over 30%. In data set [2], the “Plasma Stability, Time 0 min” value was determined as 100.0%; the “Plasma Stability, Time 60 min” value was 0.6%; the “Plasma Stability, Time 240 min” value is on record as 0.3%. For the same compound, in the data set on mdx mice [5], the “maximal force in the diaphragm” value is reported as “significant improvement” and the “specific force in the diaphragm” value is “significant improvement”.
Regarding `COc1ccc2c(c1)CN(C)CCS2` [Example S107, reference compound], in data set [3], the “Integrated CPA-Induced CaT (area under the curve) (% Reduction in Peak A)” value stood at 74.1% and the “% Reduction in Peak CaT after return” value was 52.8%.
